Results: patent US12036190B2, “Methods and compositions for the treatment of cytoplasmic glycogen storage disorders” (Duke University, priority 2015, dated 2024)
Values joined by “and” are separate entries in the source; they are usually repeats but may differ in a detail not shown here. Identical values can stand only once. “Also recorded” adds a separate entry of the source.

How the values were obtained:
[1] = tested on: G6pc−/− mice; experiment: Rapamycin treatment of GSD Ia (G6pc−/−) mice; format: in vivo; conditions: GSD Ia mouse livers, which began at 7-fold the levels of wildtype livers
Description: Candidate drugs for restoring autophagy in the GSD Ia liver were evaluated. Rapamycin is known to both have potent effects on activating autophagy as an mTORC1 inhibitor, and to regulate lipid metabolism due to its effect upon mTORC1. GSD Ia mice were treated with rapamycin daily for 7 days prior to evaluating effects upon autophagy and lipid accumulation in the liver.
G6pc−/− mice were given intraperitoneal injections of 5 mg/kg rapamycin suspended in 10% DMSO/90% PBS daily for 7 days starting on day 5 of life.
Treatment was sufficient to normalize G6pc−/− mice to the naturally low WT triglyceride levels.
Hepatic glycogen content was further analyzed using PAS staining to stain for polysaccharides, including glycogen, in liver sections. […] This confirms our hypothesis that manipulating autophagy can reduce glycogen accumulation by breaking it down through alternate routes from the traditional one relying on G6Pase, bypassing the need for G6Pase in GSD Ia hepatocytes.

[2] = tested on: primary muscle cells from GSD IIIa patients; experiment: rhGAA on primary muscle cells from GSD IIIa patients; format: cell-based, human; conditions: GSD IIIa patient muscle cells
Description: FIG. 32 illustrates an analysis of the skeletal muscle biopsies from two GSD IIIa patients, a person (Pt. 1) and a person (Pt. 2). […] (FIG. 32B) Under EM, occasional lysosomal glycogen 1 (identified at the end of arrow) was also seen in the myocytes (scale bar=1 μm). […] (FIG. 32E) GAA activity in normal and patient cells 48 h after adding recombinant human acid alpha-glucosidase (rhGAA, Myozyme*, alglucosidase alfa) treatment. […] The significance of differences between two different groups was assessed using the two-tailed, equal variance student T-test ([…]).

[3] = tested on: GSD IV mice; experiment: rhGAA enzyme replacement therapy in GSD IV mice; format: in vivo, mouse
Description: (§1) Methods: A short-term study was conducted to determine the minimum effective dose (MED) of rhGAA treatment with 3 dosages: 20 mg/kg (human equivalent dose, n=6), 40 mg/kg (n=9), and 100 mg/kg (n=8). Male GSD IV mice received weekly intravenous injections of rhGAA were conducted for 4 week starting at age of 10 weeks. A group of age-matched untreated mice (n=8) were used as controls. To prevent anaphylactic reactions, the animals were administered 25 mg/kg diphenhydramine (i.p.) 10-15 min prior to enzyme administration. All mice were sacrificed 48 hours after the last injection following overnight fasting. Fresh tissues were immediately frozen and stored at −80° C. until use for GAA activity and glycogen content analyses. Protein concentration was measured using BCA method.

[4] = tested on: primary myoblasts from GSD IV mice; experiment: rhGAA on primary myoblasts from GSD IV mice; format: cell-based, mouse
Description: Primary myoblast cells were isolated from 7-day-old GSD IV mouse skeletal muscle. Early passage cells were seeded in 10-cm culture dishes with EMEM medium containing 10% FBS. When cells reached 90% confluence, rhGAA was added to the culture medium (final activity=1000 nmol/hr/ml). […]
Reduction of glycogen deposition in GSD IV mouse myoblasts by rhGAA treatment was also confirmed by immunofluorescence staining using a mouse anti-glycogen monoclonal antibody ESG1A9mAb.

[5] = tested on: GSD III mice; experiment: rhGAA enzyme replacement therapy in GSD III mice; format: in vivo, mouse
Description: as §1, with “GSD III mice were used to test 3 dosages” for “A short-term study was conducted”, “treatment:” for “treatment with 3 dosages:”, “(n=6),” for “(human equivalent dose, n=6),”, “(n=5),” for “(n=9),”, “(n=7). Weekly” for “(n=8). Male GSD IV mice received weekly”

[6] = tested on: patient with PRKAG2 pathogenic gene mutation; experiment: Alglucosidase alfa ERT in a patient with PRKAG2 mutation; format: in vivo, human
Text: A patient was born by caesarian section at 38 weeks gestation as a result of the nuchal cord being wrapped around their neck. The patient was noted to have hypotonia and generalized muscle weakness. They were are flexic and had feeding difficulties. The patient began developing severe lower respiratory infections which led to frequent admissions to the hospital. […] Following numerous recurrent pneumonias, and the history of muscle weakness, the patient's physicians raised Pompe disease as a potential diagnosis. […] Given the early findings of hypotonia and the low GAA enzyme activity, a diagnosis of non-classic infantile Pompe disease was made. The patient was initiated on ERT with alglucosdase alfa at a dose of 20 mg/kg every 2 weeks.
[…], the patient started ERT. They were belly crawling asymmetrically and was unable to achieve sitting from a prone or supine position. Due to weakness in their neck and trunk flexors, the patient consistently sat with their trunk completely collapsed in kyphotic position and their head propped up in capital extension in a chin poke position. […] They were able to crawl more efficiently, to achieve sitting independently from a prone or supine position, and to pull themself up into a standing posture without aid. […] […], the patient was able to walk independently with an age appropriate gait pattern and to climb small steps as well as jump off them without support. They were also able to transition independently into and out of any position, which helped them participate more fully in activities appropriate for their age.
Baseline assessments were done which included tests for AST (44 IU/L; normal range: <45 IU/L), ALT (20 IU/L; normal range: 9-80 IU/L), along with PT measures looking at muscle strength and function measures. […] Upon examination, the patient has developed more defined calf muscles, along with an improvement of […] strength and power. […] has grown physically stronger and has not had episodes in which […] lacks energy for consecutive days, becomes completely floppy, and is unable to hold their head up properly following a seizure.
At baseline, according to the MABC assessment, the patient achieved a Total Test Score of 68 ranking them in the 25th percentile. Five months after reinitiation of ERT, the patient achieved a Total Test Score of 73 on […] MABC assessment, ranking them in the 37th percentile. A minimal detectable change (MDC) for the MABC has been reported as 1.21 points, representing a true change in motor function. The results in this child show an increase of 5 points over 5 months, which is greater than the minimal important difference (MID) of the MABC, which has been reported as a change of 2.5 points shown over 6 months.

[7] = weekly for 4 weeks at 20, 40 or 100 mg/kg, data not shown
[8] = rhGAA 1000 nmol/hr/ml, 24 hours
[9] = reassessment 5 months post ERT, initial 3

In the case of CO[C@H]1C[C@@H]2CC[C@@H](C)[C@@](O)(O2)C(=O)C(=O)N2CCCC[C@H]2C(=O)O[C@H]([C@H](C)C[C@@H]2CC[C@@H](O)[C@H](OC)C2)CC(=O)[C@H](C)/C=C(\C)[C@@H](O)[C@@H](OC)C(=O)[C@H](C)C[C@H](C)/C=C/C=C/C=C/1C [Rapamycin, rapamycin], the “reduction of hepatic triglycerides” value [1] is reported as 50%.
With “rhGAA: recombinant human acid alpha-glucosidase (rhGAA, Myozyme, alglucosidase alfa), FDA approved therapy for Pompe disease” the glycogen content [2] was “significantly reduced glycogen levels; also recorded: significantly reduced glycogen content; also recorded: significantly reduced glycogen concentration”, the “GAA activity in heart, increase” value ([3]; 20 mg/kg) was 1.7 fold and the “glycogen content in tissues” value ([3]; 20 mg/kg) was “failed to reduce glycogen in any tissue; also recorded: not significant”. The “GAA activity in liver, increase over untreated controls” value (“GAA activity in liver, increase” for short) ([3]; 20 mg/kg weekly IV for 4 weeks) was 29 folds, the “decrease of liver glycogen” value ([3]; 40 mg and 100 mg treatment) was 21-25% and the “GAA activity in heart, increase” value ([3]; 40 mg/kg) was 2.8 fold. The “change of glycogen content in liver” value ([3]; 40 mg/kg) was −21%, the “GAA activity in liver, increase” value ([3]; 40 mg/kg weekly IV for 4 weeks) was 48 folds and the liver/body weight ratio ([3]; 40 mg/kg, untreated 5.8±0.2%, p<0.05) was 5.0±0.2%. For the same molecule, the “plasma alanine aminotransferase (ALT)” value ([3]; 40 mg/kg, untreated 1029±87 U/L, p<0.01) was 650±32 U/L, the “plasma aspartate aminotransferase (AST)” value ([3]; 40 mg/kg, untreated 1059±93 U/L, p=0.074) was 849±50 U/L and the “GAA activity in skeletal muscles, increase” value ([3]; 100 mg/kg) was 1.6 folds. For the same molecule, the “change of glycogen content in liver” value ([3]; 100 mg/kg) was −25%, the “GAA activity in liver, increase” value ([3]; 100 mg/kg weekly IV for 4 weeks) was 67 folds and the “glycogen content in skeletal muscle” value ([3]; 40 and 100 mg/kg) was “not in any skeletal muscle”. The “GAA activity in quadriceps, increase” value ([3]; either dosage (20, 40 mg/kg)) was “negligible”, the “GAA activity in gastrocnemius, increase” value ([3]; either treated group (20, 40 mg/kg)) was “less than 1 fold” and the “anti-GAA antibodies compared with those reported in GAA-KO mice” value [3, 7] was “significantly less”. The “reduction of glycogen (immunofluorescence, ESG1A9mAb)” value ([4]; 4 hours) was “obvious”, the “reduction of glycogen (immunofluorescence, ESG1A9mAb)” value ([4]; 24 hours) was “more evident” and the “decrease of glycogen content” value [4, 8] was 24%. The “increase of GAA activity” value [4, 8] was 50%, the glycogen content ([4]; versus untreated cells) was “significantly reduced glycogen content; also recorded: significantly (p<0.01) reduced” and the “glycogen content in tissues” value ([5]; 20 mg treatment) was “did not affect glycogen content in any tissues”. For the same molecule, the “decrease of liver glycogen” value ([5]; 40 mg and 100 mg treatment) was 24-25%, the “glycogen content in heart” value ([5]; 40 mg and 100 mg treatments) was “significantly reduced glycogen contents” and the “glycogen content in liver” value ([5]; 40 mg and 100 mg treatments) was “significantly reduced glycogen contents”. For the same molecule, the “ratio of liver/body weight” value ([5]; 40 mg and 100 mg treatments) was “reduced ratio of liver/body weight”, the “GAA enzyme uptake, order of GAA activity by tissue” value ([5]; weekly IV for 4 weeks) was “liver>heart>diaphragm>leg muscles” and the “anti-GAA antibodies compared with those reported in GAA-KO mice” value [5, 7] was “significantly less”. For the same molecule, the “neurological, occupational therapy and physical therapy reports” value ([6]; after five months of reinitiated ERT) was “significant improvement”, the gross motor abilities ([6]; first ERT course, 20 mg/kg every 2 weeks, three months after initiation) was “began improving” and the “Movement ABC increase of Total Score” value ([6]; over 5 months of ERT) was 5 points. For the same molecule, the “Movement ABC percentile increase” value ([6]; over 5 months of ERT) was 12, the “Movement ABC Percentile” value ([6]; re-assessment 5 months on ERT, pre-ERT 25th percentile) was 37 percentile and 37th percentile and the “Movement ABC Total Score” value ([6]; re-assessment 5 months on ERT, pre-ERT 68) was 73. The “M-FUN Fine Motor Scaled Score” value [6, 9] was 5 (considered mild/borderline, the “M-FUN Gross Motor Scaled Score” value [6, 9] was 3 (considered very low/severe and the “M-FUN Visual Motor Scaled Score” value ([6]; reassessment 5 months post ERT, initial 6) was 9 (considered “average” or. The “M-FUN Gross Motor Progress Score” value ([6]; reassessment 5 months post ERT, initial 288) was 407, the “M-FUN Fine Motor Progress Score” value ([6]; reassessment 5 months post ERT, initial 292) was 394 and the “M-FUN Visual Motor Progress Score” value ([6]; reassessment 5 months post ERT, initial 374) was 496. For the same molecule, the fatigue at assessment ([6]; reassessment at five months of ERT) was “less fatigue”.
